Experiments:
SK-OV-3 cells [1] = test: Lipid mediated transfection (luciferase activity) in aphidicolin treated cells; type: cell-based, human
Method: Lipoplexes were prepared as follows: All reagents were sterile and cooled to 4° C. prior to complex preparation. A solution containing 62 μM dioleoyldimethylammonium chloride:1,2-sn-dioleoylphosphatidylethanolamine (DODAC:DOPE) large unilamellar vesicles (LUVs) and a solution containing 10 μg/mL plasmid DNA were prepared in distilled water. The DNA was added to an equal volume of lipid dropwise, while vortexing. The solution was incubated on ice for 30 minutes prior to transfection. The resulting lipoplexes contained a final DNA concentration of 0.5 μg/100 μL and the cationic lipid:DNA (+:−) charge ratio was 1:1.
Plasmid containing a therapeutic gene was encapsulated as SPLP using the detergent dialysis method of INEX 351. […]
(§1) Luciferase assays were performed using the Luciferase Assay System kit (Promega, Madison, Wis.) according to the manufacturer's protocol. […] A standard curve was determined by assaying 20 μL of serial dilutions of a 1 mg/mL luciferase standard (Boehringer Mannheim). […] Absorbance was monitored at 570 nm (Dynatech MR5000 plate reader) and protein content calculated using a standard curve of varying concentrations of BSA.
An initial experiment was performed to determine whether lipid mediated transfection was affected by the cell cycle status of SK-OV-3 cells in vitro. […] Luciferase activity was measured after 24 hrs of continuous exposure to lipoplexes. […]

SK-OV-3 cells [2] = test: Cell cycle arrest by aphidicolin, propidium iodide staining and flow cytometry; type: cell-based, human; details: (+/−) culture
Method: SK-OV-3 or HeLa-luc cells were seeded at a density of 30,000 cells per well in a 24 well plate in growth media 24 hours prior to treatment with aphidicolin. Aphidicolin (Sigma) was reconstituted in phosphate buffered saline containing 0.5% DMSO. Cells were incubated with aphidicolin at a final concentration of 5 μg/mL in 1 mL of media per well for 16 hours prior to transfection. Transfection was accomplished by the addition of 0.5 μg of formulated DNA to each well.
The cell cycle status of cultures was determined by flow cytometry of permeabilized cells that were stained with propidium iodide. Prior to harvesting, media was aspirated and the cells were washed twice with 2 mL phosphate buffered saline (PBS). […] 5,000 cells were analyzed in the FL2 channel (λemission=585+/−21 nm) of a FACSort flow cytometer (Becton-Dickinson, San Jose, Calif.) equipped with an Ar- ion laser (λexcitation=488 nm)
In an initial study, the effectiveness of a non-lethal concentration of aphidicholin to arrest SK-OV-3 cells was determined. A sub-confluent asynchronous cell culture contained approx. 75%, 5% and 20% of cells in G1, S and M phase, respectively, as measured by staining with propidium iodide (PI) followed by flow cytometry (FIG. 1(A)). […]

HeLa-luc cells = test: Effect of aphidicolin on constitutive CMV driven luciferase gene expression; type: cell-based, human; details: 0, 6 and 24 hours after arrest vs untreated control cells
Method: SK-OV-3 cells (human ovarian tumor cells, ATCC) were cultured in RPMI 1640 media (StemCell Technologies, Vancouver, B.C.) supplemented with 10% fetal bovine serum (Intergen). HeLa-luc cells were stably transfected with a luciferase reporter plasmid and cultured in Dulbecco's modified Eagle medium (StemCell Technologies, Vancouver, B.C.) supplemented with 10% fetal bovine serum and 400 μg/mL Geneticin (Gibco BRL). […]
as §1
To determine the effect of aphidicolin-mediated cell cycle arrest on the transcriptional and translational machinery of the cell, a clonal HeLa cell line stably transfected with a CMV driven luciferase expression cassette (Song, Inex Pharmaceuticals, unpublished) was analyzed. […]

SK-OV-3 cells [3] = test: Uptake of YOYO-1 labeled plasmid DNA lipoplexes by flow cytometry; type: cell-based, human; details: aphidicolin arrested vs control cells
Method: SK-OV-3 or HeLa-luc cells were seeded at a density of 30,000 cells per well in a 24 well plate in growth media 24 hours prior to treatment with aphidicolin. Aphidicolin (Sigma) was reconstituted in phosphate buffered saline containing 0.5% DMSO. Cells were incubated with aphidicolin at a final concentration of 5 μg/mL in 1 mL of media per well for 16 hours prior to transfection. Transfection was accomplished by the addition of 0.5 μg of formulated DNA to each well. […]
Lipoplexes were prepared using YOYO-1 labeled DNA and incubated with cells. […] Fluorescence was measured in the FL1 channel (λemission=530+/−15 nm) of a FACSort flow cytometer (Becton-Dickinson, San Jose, Calif.) equipped with an Ar- ion laser ([…]). Data was collected from 10,000 cells and analyzed for fluorescence using CellQuest software.
In order to determine whether aphidicolin treatment affects cellular processes related to transgene expression, effects on DNA uptake and gene expression were studied. It has been shown previously that fluorescently labeled DNA can be formulated as lipoplexes and the uptake of lipoplexes can be measured by flow cytometry (see, Zabner, et al., J. Biol. Chem., 270:18997-19007 (1995); and Tseng, et al., Biotechnol. Bioeng., 50:548-554 (1996);). […] The rate of lipoplex uptake per cell was determined by flow cytometry. […]

MCA 207 tumor [4] = test: Combination therapy: OncoTCS then i.v. INEX 303 with pINEX-TK10 plus ganciclovir, tumor size; type: in vivo, C57 BL/6 mice; details: subtherapeutic pretreatment (OncoTCS 0.5 mg/kg i.v.) before INEX 303 pINEX-TK10 i.v. and ganciclovir i.p.
Method: C57 BL/6 mice are seeded subcutaneously with MCA 207 tumor cells. Tumor seeding is performed by standard techniques. Mice are seeded subcutaneously on the hip flank with 100,000 MCA-207 fibrosarcoma tumor cells by […] injection on day zero. The tumor cells are cultivated and prepared according to standard techniques using RPMI media with 10% Fetal Bovine Serum (see, for example, Current Protocols in Molecular Biology, Eds. Ausubel, F. M., et al.)
At 8, 16, 24, 30, 36, 42 or […] after OncoTCS treatment, the mice are injected i.v. via tail vein with INEX 303 containing pINEX-TK10 prepared as described herein (100 μg DNA with about 500 μg lipid all in about 200 μL total volume). Control mice receive HBS.
1 mg ganciclovir, which is in 200 μL PBS (approximately 50 mg/kg; commercially available from Hoffman La Roche) is administered by intraperitoneal injection 12 h and 24 h after SPLP administration.

B16 cells = test: Luciferase activity in i.p. tumors after i.p. INEX 324 following OncoTCS; type: in vivo, C57 mice; details: OncoTCS 0.5 mg/kg i.v. 24 hours before INEX 324 i.p. 20 micrograms
Method: […] are seeded intraperitoneally with about 100,000 B16 cells. On day 7, 12 mice are injected i.v. via the tail vein with about 0.5 mg/kg of OncoTCS (vincristine sulfate encapsulated in sphingomyelin-containing TCS) in about 200 microliters. 12 control mice are not treated with OncoTCS. 24 hours later, all mice are injected i.p. with 20 micrograms of INEX 324 (TCS containing luciferase plasmid pINEX L018) in 500 microliters. Tumors are harvested 6, 12, 24 and 48 hours later, fast frozen, and stored at −70° C. until analyzed for luciferase activity. The frozen organs are then thawed at room temperature. 600 microliters of 1× cell culture lysis buffer (Promega) is added and the samples are homogenized in a FASTPREP homogenizer for 20 sec. at speed 4.0. The samples are centifuged for 2 min. at 10,000 g, and 20 microliters of the supernatant is assayed for luciferase activity.

MCA 207 tumor [5] = test: Combination therapy: OncoTCS then i.v. INEX 324 with pINEX-IL-12, tumor size; type: in vivo, C57 BL/6 mice; details: subtherapeutic dose (OncoTCS 0.5 mg/kg i.v.) before INEX 324 i.v. 100 μg DNA
Method: C57 BL/6 mice are seeded subcutaneously with MCA 207 tumor cells. Tumor seeding is performed by standard techniques. Mice were seeded subcutaneously on the hip flank with 100,000 MCA-207 fibrosarcoma tumor cells by sub-cutaneous injection on day zero.
On days 7-10, when tumors had developed to useable sizes, mice were injected i.v. via tail vein with approximately 0.5 mg/kg of OncoTCS (200 μL).
At 8, 16, 24, 30, 36, 42 or […] after OncoTCS treatment, the mice were injected i.v. via tail vein with INEX 324 (100 μg DNA pINEX-1L-12 with about 500 μg lipid all in about 200 μL total volume). Control mice received HBS.

Compound	decrease in luciferase gene expression (SK-OV-3 cells [1]; (+/+) culture arrested in G1, 24 hrs continuous exposure to DODAC:DOPE lipoplexes, vs asynchronous control) [fold]	luciferase expression vs control asynchronous culture (SK-OV-3 cells [1]; (+/−) culture, 24 hrs exposure to lipoplexes)	cells in the G2/M phase (SK-OV-3 cells [2]; 16 hrs after removal of aphidicolin block)	cells that had undergone mitotic division and progressed into the G1 phase (SK-OV-3 cells [2]; within 22 hrs after removal of aphidicolin block) [%]	effect on level of luciferase gene expression (HeLa-luc cells)	effect of cell cycle arrest on internalization of lipoplexes (SK-OV-3 cells [3])	tumor growth vs HSV-TK/ganciclovir system alone (MCA 207 tumor [4])	transfection of tumors (B16 cells)	effect on therapeutic effect of pINEX-IL-12 in INEX 324 (MCA 207 tumor [5])
C[C@@]1(CO)[C@H](O)CC[C@@]2(C)[C@H]1CC[C@H]1C[C@@H]3C[C@@]12CC[C@]3(O)CO [aphidicolin, Aphidicolin]	20	did not differ significantly	approximately 85%	~45	did not significantly affect	does not affect the internalization of lipoplexes	–	–	–
CC[C@]1(O)C[C@H]2CN(CCc3c([nH]c4ccccc34)[C@@](C(=O)OC)(c3cc4c(cc3OC)N(C=O)[C@H]3[C@@](O)(C(=O)OC)[C@H](OC(C)=O)[C@]5(CC)C=CCN6CC[C@]43[C@@H]65)C2)C1 [vincristine]	–	–	–	–	–	–	inhibits growth of tumors and promotes tumor regression to a significantly greater degree	transfection of neoplastic sites	greatly enhances the therapeutic effect

— patent US6841537B1, “Combination therapy using nucleic acids and conventional drugs” (Protiva Biotherapeutics Inc., priority 1998, dated 2005)
